Paper PMC12005989, “Purification, identification, and in silico screening of a multifunctional octapeptide from semen armeniacae glutelin-2 hydrolysates: restraining mechanisms to Keap1 and ACE, stability, and ferrous-transport efficiency” (Frontiers in Nutrition, 2025)
Like-named read-outs stand apart in the source and are kept apart here. Ends that are not written are not given here.

Experiments:
[1] = cited from earlier work
Text: The Asp., Val, Tyr, Phe, and Gly in […] can effectively bind to ferrous ions ([16], [20]). The γ-carboxyl group in Asp and phenolic hydroxyl groups in Tyr and Phe can form ionic bond with ferrous ions ([17]). Ascribed to the excellent metal ion-chelating capacity, Gly is an ideal ingredient for iron or calcium supplement ([45]). In addition, the carbo ...

ACE = tested on: ACE; set-up: method as in 2 sources, ref 34 = [34]; doi:10.1016/j.fbio.2023.103419; 34. Zheng Y Ma J Guo Y Zhuang Y Yang Z Zhu Z . In silico screening and characterization, inhibition mechanism on ACE, and stability of antihypertensive peptides with Zn-chelating capacity identified f ||| ref 45 = [45]; PMID 38470110; doi:10.1021/acs.jafc.4c00829; 45. Martineau-Côté D Achouri A Karboune S L’Hocine L . Antioxidant and angiotensin-converting enzyme inhibitory activity of Faba bean-derived peptides after in vitro gastrointestinal digestion: insigh; details: read-out: ACE-inhibitory IC50, cited from earlier work
[2] = Ferric reducing ability, Prussian blue method; details: 100 μg/mL, pH 6.8 phosphate buffer, determined at 700 nm, mean ± SD, triplicate
Description: Ferric reducing ability was defined as the ability of antioxidants to provide protons, which was administrated according to the Prussian blue method ([2]). A total 1 mL of BAG-2H peptide solution (100 μg/mL, dissolved in 0.2 mol/L of phosphate buffer, pH 6.8) was reacted with potassium ferricyanide (10 mg/mL, 4 mL) in the EDZF-C002 thermostatic vibrator (50°C, 220 rpm) for 30 min. The reaction solution was cooled to 25 ± 1°C and precipitated using an equal volume of 100 mg/mL trichloroacetic acid for 10 min. Then, the reaction solution was centrifuged at 3000 × g for 25 min, and 1 mL of the upper solution was pipetted and reacted with 1 mg/mL of FeCl3 (1.2 mL) to produce Prussian blue (potassium ferrocyanide). The concentration of potassium ferrocyanide produced was positively correlated with the ferric reducing ability of the sample ([37]), which was determined at 700 nm using a HD-UV90 ultraviolet–visible spectrophotometer (Holder Technology Co. LTD, Weifang, China).
As described by Wu et al. ([41]), the simulative gastric digestive fluid consisted of sodium chloride (0.18 mol/L), ultrapure water (180 mL), and 0.40 mg/mL of pepsin. […] The ACE inhibition capacity and antioxidant ability of the treated BAG-2H peptides were detected and compared to those of the undigested BAG-2H peptides.

[3] = ABTS+ radical quenching, potassium persulfate method; details: 100 μg/mL; mean ± SD, triplicate
Description: (§1) The free radical quenching ability of samples, including superoxide, 2,2′-hydrazine-bis (3-ethylbenzothiazolin-6-sulfonic acid) diamine salt cation (ABTS^+), and hydroxyl radicals, was determined using the pyrogallol auto-oxidation, potassium persulfate, and β-deoxyribose oxidation methods, according to the same procedures from Tyagi et al. ([6]), Lin et al. ([2]), and Wang et al. ([35]), respectively. Comparison was conducted when the samples were replaced by glutathione (0.1 mg/mL).
As described by Wu et al. ([41]), the simulative gastric digestive fluid consisted of sodium chloride (0.18 mol/L), ultrapure water (180 mL), and 0.40 mg/mL of pepsin. The simulation intestinal digestive juice was composed of NaHCO3 (0.625 g/mL), bile salt (3 g/100 mL), pancreatin (0.35 mg/mL), and 180 mL ultrapure water. In a glass triangle flask, 300 mg of the antihypertensive and antioxidant BAG-2H peptides, 60 mL of ultrapure water, and 150 mL of the simulative gastric fluid were mixed thoroughly. The flask was placed at 37°C in an EDZF-C002 thermostatic vibrator with shaking rate of 140 rpm. After 90 min, 180 mL of the simulative intestinal hydrolysis fluid was added and stirred at 37°C for 2 h. […] The ACE inhibition capacity and antioxidant ability of the treated BAG-2H peptides were detected and compared to those of the undigested BAG-2H peptides.

[4] = Hydroxyl radical quenching, β-deoxyribose oxidation method; details: 100 μg/mL, mean ± SD, triplicate
Description: Next, the purification of BAG-2H is a two-step process: first, BAG-2H solution (1 g/L) was subjected to ultra-filtration on an ultra-membrane (filter aperture of 220 nm, Jingfei Membrane Equipment Factory, Luzhou, China). Next, the ultra-filtrate solution (2 mL) was chromatographically purified citing the modified procedures from Li et al. ([30]). Pre-balanced G-15 gel was loaded into a HS-MG-125 chromatographic column (Huasheng Chromatography Tech. Co., Ltd., Wuxi, China). After the BAG-2H ultra-filtrate solution has completely sunk into the column plane, the gel chromatographic column was sealed and eluted using dH2O with a constant velocity of 2.4 mL/min and monitor wavelength of 220 nm. An automatic collector (BT-160I, Thirdli Collection Equipment Co., Ltd., Guangzhou, China) was used to collect the elution, and the collection tube was changed every 5 min ([34]). After 400 min, the profiles of absorbance at 220 nm against elution time were drawn, and the separation fractions were freeze-dried using the EHI-220D lyophilizer. The ACE-inhibitory, ferrous-binding, and hydroxyl radical quenching abilities of the separation fractions were detected citing the hippuric acid ([50]), […]. During screening of the separation fractions, ACE-inhibitory and hydroxyl radical quenching abilities were the primary indexes, and the amino acid sequences of the selected fraction were analyzed.
as §1, with “Comparison was conducted when the samples were replaced by glutathione (0.1 mg/mL).” left out
Physicochemical properties and functionalities of BAG-2H peptides, including antihypertension and antioxidant activity, were in silico analyzed with the AHTpin^2 and Peptide Ranker server^3 databases ([39]), respectively. […]

[5] = Superoxide radical quenching, pyrogallol auto-oxidation method; details: 100 μg/mL, mean ± SD, triplicate
Description: as §1
(§2) As described by Wu et al. ([41]), the simulative gastric digestive fluid consisted of sodium chloride (0.18 mol/L), ultrapure water (180 mL), and 0.40 mg/mL of pepsin. The simulation intestinal digestive juice was composed of NaHCO3 (0.625 g/mL), bile salt (3 g/100 mL), pancreatin (0.35 mg/mL), and 180 mL ultrapure water. In a glass triangle flask, 300 mg of the antihypertensive and antioxidant BAG-2H peptides, 60 mL of ultrapure water, and 150 mL of the simulative gastric fluid were mixed thoroughly. The flask was placed at 37°C in an EDZF-C002 thermostatic vibrator with shaking rate of 140 rpm. After 90 min, 180 mL of the simulative intestinal hydrolysis fluid was added and stirred at 37°C for 2 h. To stop the hydrolysis, the digestion solution in the flask was boiled for 6 min and then cooled by running water to room temperature. The ACE inhibition capacity and antioxidant ability of the treated BAG-2H peptides were detected and compared to those of the undigested BAG-2H peptides.

[6] = Gastrointestinal stability of peptide (simulated gastric and intestinal digestion); format: in vitro ADME; details: simulated gastric fluid (pepsin 0.40 mg/mL) 90 min, then intestinal fluid (pancreatin, bile salt) 2 h, 37°C; read-out retained activity; p > 0.05
Description: as §2

Caco-2 cell monolayers = assay: Ferrous transport across Caco-2 cell monolayers; format: in vitro ADME; details: Caco-2 transwell, apical to basolateral, chelate 320 μg/mL, 37°C, o-phenanthroline, p < 0.05
Description: In a 24-well transwell culture plate, Caco-2 cells (0.75 × 10^6 cells/cm^2) were cultivated by Dulbecco’s modified Eagle’s medium that contained fetal bovine serum (20 g/L), streptomycin (1 μg/μL), penicillin (1 μg/μL), and neomycin (1 μg/μL) and refreshed every 48 h. After 12–14 d of incubation at 5% CO2 and 37°C, the transepithelial electrical resistance was more than 400 Ω·cm^2 and a monolayer Caco-2 cell mode was formed. Afterward, the medium was removed, and Hank’s Balanced Salt Solution was added. After 30 min of cultivation at 5% CO2 and 37°C, Hank’s Balanced Salt Solution was removed from the apical side and BAG-2H peptide-ferrous chelates (320 μg/mL) were added and then cultivated at 5% CO2 and 37°C for 150 min. Every 30 min, the o-phenanthroline method was used to quantify the ferrous amounts of cultivate solution in the basolateral side ([38]).

[7] = target: T1, angiotensin-I-converting enzyme (ACE) (Oryctolagus cuniculus, UniProt P12822); assay: ACE restraining capacity, hippuric acid method; format: biochemical, Rabbit; details: substrate HHL, absorbance 228 nm, IC50 from regression of inhibition against concentration, tests in triplicate, read-out: ACE-inhibitory activity (IC50)
T1 construct: Rabbit lungs ACE (0.1 U) was obtained from Sigma-Aldrich (St. Louis, MO, USA); purchased Sigma-Aldrich (St. Louis, MO, USA); host or cells: rabbit lung (tissue-derived)
T1 sequence (P12822 34-1310): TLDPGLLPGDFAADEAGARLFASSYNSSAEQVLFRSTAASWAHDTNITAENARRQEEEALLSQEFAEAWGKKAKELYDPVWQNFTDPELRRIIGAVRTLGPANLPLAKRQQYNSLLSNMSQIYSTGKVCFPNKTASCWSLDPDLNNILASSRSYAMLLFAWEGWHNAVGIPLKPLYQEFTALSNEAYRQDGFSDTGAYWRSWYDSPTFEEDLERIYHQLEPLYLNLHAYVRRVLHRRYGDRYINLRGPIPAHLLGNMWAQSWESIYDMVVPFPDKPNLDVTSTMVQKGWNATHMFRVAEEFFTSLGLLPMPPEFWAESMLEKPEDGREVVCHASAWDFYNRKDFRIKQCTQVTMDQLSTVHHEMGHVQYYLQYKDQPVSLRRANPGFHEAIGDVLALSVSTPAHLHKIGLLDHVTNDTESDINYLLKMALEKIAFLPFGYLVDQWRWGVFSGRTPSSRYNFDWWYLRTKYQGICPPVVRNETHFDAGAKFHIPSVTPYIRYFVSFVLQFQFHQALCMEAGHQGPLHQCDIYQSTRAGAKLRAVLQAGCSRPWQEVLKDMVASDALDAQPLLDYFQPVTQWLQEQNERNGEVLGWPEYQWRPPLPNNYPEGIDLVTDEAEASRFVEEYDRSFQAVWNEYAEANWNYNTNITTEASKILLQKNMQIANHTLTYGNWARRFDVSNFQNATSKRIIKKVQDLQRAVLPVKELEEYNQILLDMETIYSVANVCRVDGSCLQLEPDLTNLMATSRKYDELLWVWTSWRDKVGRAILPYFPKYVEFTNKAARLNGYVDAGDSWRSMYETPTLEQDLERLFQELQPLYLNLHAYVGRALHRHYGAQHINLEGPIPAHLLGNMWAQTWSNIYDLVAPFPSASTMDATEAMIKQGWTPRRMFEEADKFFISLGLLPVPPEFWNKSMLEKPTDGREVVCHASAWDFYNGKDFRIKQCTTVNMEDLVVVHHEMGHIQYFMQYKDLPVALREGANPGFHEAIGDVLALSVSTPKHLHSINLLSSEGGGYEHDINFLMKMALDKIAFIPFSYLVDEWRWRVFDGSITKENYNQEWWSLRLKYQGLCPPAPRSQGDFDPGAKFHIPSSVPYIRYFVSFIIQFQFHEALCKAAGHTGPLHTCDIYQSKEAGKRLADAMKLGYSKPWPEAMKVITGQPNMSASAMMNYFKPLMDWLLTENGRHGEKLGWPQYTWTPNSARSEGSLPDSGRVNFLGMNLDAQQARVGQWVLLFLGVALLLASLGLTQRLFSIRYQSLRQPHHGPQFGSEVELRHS

[8] = target: T1, angiotensin-I-converting enzyme (ACE); assay: ACE-inhibitory kinetics, Lineweaver–Burk plot; format: biochemical, Rabbit; details: inhibitor 0.011–0.055 mmol/L, HHL 0.13–1.32 mmol/L, Vmax not altered, Km increased
Text: The hippuric acid method ([50]) was used to measure the samples’ restraining capacity against ACE citing the same procedures from Zheng et al. ([34]). The absorbance of the reaction solution at 228 nm was the hippuric acid content and was proportional to ACE activity; therefore, the restraining capacity of samples toward ACE was defined as the percentage reduction in the absorption at 228 nm between the control and sample groups. In addition, the ACE-inhibitory kinetic by BAG-2H peptides (0.011–0.055 mmol/L) was investigated employing Lineweaver–Burk plot ([36]).

[9] = Ferrous solubility of ferrous chelate during simulated gastrointestinal digestion; format: in vitro ADME; details: soluble ferrous by o-phenanthroline every 30 min
Description: Next, the intestinal digestive fluid was added, and the digestion was continued at pH 6.8 for 2 h in the EDZF-C002 thermostatic vibrator ([…], 175 rpm).

FEDPEFE [scallop skirts peptide]
Ferrous chelating ability ([1]; scallop skirts peptide): 9.39 mg/g

GCHHY
IC50 (ACE; peptide from millet bran glutelin-2): 147 µM

N[C@@H](CCC(=O)N[C@@H](CS)C(=O)NCC(=O)O)C(=O)O [Glutathione, glutathione, reference compound]
Ferric reducing ability, before gastrointestinal [2]: 0.675 ± 0.019a | ABTS+ scavenging activity, before gastrointestinal [3]: 79.25 ± 1.67%a | ·OH scavenging activity, before gastrointestinal [4]: 95.56% ± 1.38%a | Superoxide radical scavenging ability, before gastrointestinal [5]: 90.52% ± 4.97%a

PVDFAGFY
Stability of antioxidant activity and ACE-inhibitory capacity during gastrointestinal digestion [6]: stable during gastrointestinal digestion

SELE [millet bran globulin peptide]
Ferrous chelating ability ([1]; millet bran globulin peptide): 7.93 mg/g

PVDFAGFY-ferrous chelate: ferrous chelate of PVDFAGFY prepared with ferrous chloride (also: ferrous chelate)
Ferric reducing ability, before gastrointestinal ([2]; the values are: absorbance at 700 nm): 0.225 ± 0.012 | ABTS+ scavenging activity, before gastrointestinal [3]: 35.18% ± 1.16%c | ·OH scavenging activity, before gastrointestinal [4]: 79.37% | ·OH scavenging activity, before gastrointestinal ([4]; listed as PVDFAGFY-Fe): 79.37% ± 4.21%b | Superoxide radical scavenging ability, before gastrointestinal [5]: 69.55% | Superoxide radical scavenging ability, before gastrointestinal ([5]; listed as PVDFAGFY-Fe): 69.55% ± 3.41%b | Ferrous transmembrane absorption across Caco-2 monolayer compared with ferrous chloride (Caco-2 cell monolayers; FeCl2 0.3 mg/mL, HBSS, 150 min): higher than that of ferrous chloride | Ferrous transport across Caco-2 monolayer compared with ferrous lactate, 120–150 min (Caco-2 cell monolayers; ferrous lactate 0.3 mg/mL): better at transporting iron across the monolayer of Caco-2 cells than ferrous lactate | IC50 [7]: 101 µM | ACE-inhibitory mode [8]: competitive ACE inhibitor

[Cl][Fe][Cl] [ferrous chloride]
Ferrous solubility during gastric digestion (0–90 min) ([9]; simulated gastric fluid with pepsin, pH 1.9, 37°C, 175 rpm): relatively stable | Ferrous solubility during intestinal digestion (91–180 min) ([9]; simulated intestinal fluid, pH 6.8, 37°C): apparently decreased

VIPTEPPHA
IC50 (ACE; peptide from Faba beans): 260 µM
